SMILES strings stand for the structures.

Holding throughout (assay): Kinase panel enzymatic inhibition assay (Nanosyn)
Format in all cases: biochemical
What all share (details): compound 5 μM; ATP at Km; 30-minute pre-incubation

One assay has as its target T1, ARAF (Homo sapiens, UniProt P10398).
T1 construct: purchased Nanosyn (contract screening)
T1 sequence (P10398 1-606): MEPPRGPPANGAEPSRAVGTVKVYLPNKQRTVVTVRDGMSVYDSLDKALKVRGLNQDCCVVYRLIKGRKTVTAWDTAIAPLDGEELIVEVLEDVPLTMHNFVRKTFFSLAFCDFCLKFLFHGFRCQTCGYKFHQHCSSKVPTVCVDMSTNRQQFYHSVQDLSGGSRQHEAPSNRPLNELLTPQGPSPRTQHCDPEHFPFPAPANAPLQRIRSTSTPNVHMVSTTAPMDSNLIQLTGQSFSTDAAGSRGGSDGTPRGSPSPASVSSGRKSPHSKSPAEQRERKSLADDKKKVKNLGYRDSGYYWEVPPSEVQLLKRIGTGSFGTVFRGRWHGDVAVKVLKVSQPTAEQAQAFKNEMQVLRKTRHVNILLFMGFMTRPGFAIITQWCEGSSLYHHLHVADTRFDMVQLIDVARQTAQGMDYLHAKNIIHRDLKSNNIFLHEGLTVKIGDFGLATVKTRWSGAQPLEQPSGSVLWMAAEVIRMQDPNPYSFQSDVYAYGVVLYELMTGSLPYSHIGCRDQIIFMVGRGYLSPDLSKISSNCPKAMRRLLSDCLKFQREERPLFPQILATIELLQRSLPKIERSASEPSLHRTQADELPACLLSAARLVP
In outline:
(§1)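 Read-out is percent inhibition or IC50, obtained by mobility shift, ADP detection or time-resolved fluorescence detection. Each kinase was run with ATP at its Km, and compound at 5 μM was pre-incubated for 30 minutes.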

For another assay, the target named is T2, BRAF (Homo sapiens, UniProt P15056).
T2 construct: purchased Nanosyn (contract screening)
T2 sequence (P15056 whole entry): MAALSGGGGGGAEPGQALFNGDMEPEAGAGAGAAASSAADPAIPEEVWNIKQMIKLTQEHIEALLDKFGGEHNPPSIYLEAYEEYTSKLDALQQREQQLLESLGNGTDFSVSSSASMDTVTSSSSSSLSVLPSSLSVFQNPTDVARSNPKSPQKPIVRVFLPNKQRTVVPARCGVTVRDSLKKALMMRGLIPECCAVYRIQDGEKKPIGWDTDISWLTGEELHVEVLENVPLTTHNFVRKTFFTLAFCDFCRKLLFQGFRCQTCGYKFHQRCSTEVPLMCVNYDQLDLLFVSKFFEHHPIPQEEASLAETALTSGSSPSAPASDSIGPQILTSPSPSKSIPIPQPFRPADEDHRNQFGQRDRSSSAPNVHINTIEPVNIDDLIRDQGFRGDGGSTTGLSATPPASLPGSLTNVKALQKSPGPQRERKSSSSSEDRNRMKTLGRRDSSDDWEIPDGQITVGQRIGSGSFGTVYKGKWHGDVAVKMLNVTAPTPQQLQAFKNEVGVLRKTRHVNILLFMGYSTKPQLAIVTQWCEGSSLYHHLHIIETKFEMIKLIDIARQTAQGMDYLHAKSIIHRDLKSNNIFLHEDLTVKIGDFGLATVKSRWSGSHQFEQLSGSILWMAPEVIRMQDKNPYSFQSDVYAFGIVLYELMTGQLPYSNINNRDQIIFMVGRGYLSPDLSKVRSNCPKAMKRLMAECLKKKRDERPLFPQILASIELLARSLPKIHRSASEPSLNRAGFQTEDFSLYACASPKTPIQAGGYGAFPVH
In outline: as §1

In the next assay the target is T3, BRK (Homo sapiens, UniProt Q13882).
T3 construct: purchased Nanosyn (contract screening)
T3 sequence (Q13882 whole entry): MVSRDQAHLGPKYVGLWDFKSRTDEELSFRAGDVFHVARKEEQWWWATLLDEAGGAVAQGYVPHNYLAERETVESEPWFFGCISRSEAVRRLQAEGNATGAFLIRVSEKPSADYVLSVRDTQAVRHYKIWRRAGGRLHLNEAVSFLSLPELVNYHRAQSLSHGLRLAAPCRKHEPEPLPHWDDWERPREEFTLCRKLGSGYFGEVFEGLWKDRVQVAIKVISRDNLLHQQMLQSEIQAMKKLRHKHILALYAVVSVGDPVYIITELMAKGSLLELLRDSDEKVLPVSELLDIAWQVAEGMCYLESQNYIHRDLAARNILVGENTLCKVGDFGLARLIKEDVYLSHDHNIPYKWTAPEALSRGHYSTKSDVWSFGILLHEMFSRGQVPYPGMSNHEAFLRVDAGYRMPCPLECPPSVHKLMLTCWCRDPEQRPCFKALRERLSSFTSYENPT
In outline: as §1

The next assay addresses T4, CSF1R (Homo sapiens, UniProt P07333).
T4 construct: purchased Nanosyn (contract screening)
An outline of the steps: as §1

The target of another assay is T5, DDR1 (Homo sapiens, UniProt Q08345).
T5 construct: purchased Nanosyn (contract screening)
An outline of the steps: as §1

The target in the next assay is T6, FGR (Homo sapiens, UniProt P09769).
T6 construct: purchased Nanosyn (contract screening)
T6 sequence (P09769 whole entry): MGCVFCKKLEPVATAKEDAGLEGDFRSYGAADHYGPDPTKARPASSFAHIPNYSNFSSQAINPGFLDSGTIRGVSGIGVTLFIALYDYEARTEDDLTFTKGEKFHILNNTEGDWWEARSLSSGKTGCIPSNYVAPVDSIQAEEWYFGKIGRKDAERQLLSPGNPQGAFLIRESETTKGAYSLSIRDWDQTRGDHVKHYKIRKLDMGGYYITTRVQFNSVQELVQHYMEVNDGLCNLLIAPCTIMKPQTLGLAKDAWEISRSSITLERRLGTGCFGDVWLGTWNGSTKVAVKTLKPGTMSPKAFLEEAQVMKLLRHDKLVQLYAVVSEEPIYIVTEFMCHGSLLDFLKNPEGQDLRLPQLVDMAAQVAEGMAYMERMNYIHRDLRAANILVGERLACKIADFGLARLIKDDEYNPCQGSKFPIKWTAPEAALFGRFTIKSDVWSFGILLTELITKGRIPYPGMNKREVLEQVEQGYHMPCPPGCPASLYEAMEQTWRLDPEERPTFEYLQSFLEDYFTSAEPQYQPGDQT
In outline:
as §1

Another assay has as its target T7, KDR (Homo sapiens, UniProt P35968).
T7 construct: purchased Nanosyn (contract screening)
An outline of the steps: as §1

A further assay deals with T8, KIT (Homo sapiens, UniProt P10721).
T8 construct: purchased Nanosyn (contract screening)
T8 sequence (P10721 26-976): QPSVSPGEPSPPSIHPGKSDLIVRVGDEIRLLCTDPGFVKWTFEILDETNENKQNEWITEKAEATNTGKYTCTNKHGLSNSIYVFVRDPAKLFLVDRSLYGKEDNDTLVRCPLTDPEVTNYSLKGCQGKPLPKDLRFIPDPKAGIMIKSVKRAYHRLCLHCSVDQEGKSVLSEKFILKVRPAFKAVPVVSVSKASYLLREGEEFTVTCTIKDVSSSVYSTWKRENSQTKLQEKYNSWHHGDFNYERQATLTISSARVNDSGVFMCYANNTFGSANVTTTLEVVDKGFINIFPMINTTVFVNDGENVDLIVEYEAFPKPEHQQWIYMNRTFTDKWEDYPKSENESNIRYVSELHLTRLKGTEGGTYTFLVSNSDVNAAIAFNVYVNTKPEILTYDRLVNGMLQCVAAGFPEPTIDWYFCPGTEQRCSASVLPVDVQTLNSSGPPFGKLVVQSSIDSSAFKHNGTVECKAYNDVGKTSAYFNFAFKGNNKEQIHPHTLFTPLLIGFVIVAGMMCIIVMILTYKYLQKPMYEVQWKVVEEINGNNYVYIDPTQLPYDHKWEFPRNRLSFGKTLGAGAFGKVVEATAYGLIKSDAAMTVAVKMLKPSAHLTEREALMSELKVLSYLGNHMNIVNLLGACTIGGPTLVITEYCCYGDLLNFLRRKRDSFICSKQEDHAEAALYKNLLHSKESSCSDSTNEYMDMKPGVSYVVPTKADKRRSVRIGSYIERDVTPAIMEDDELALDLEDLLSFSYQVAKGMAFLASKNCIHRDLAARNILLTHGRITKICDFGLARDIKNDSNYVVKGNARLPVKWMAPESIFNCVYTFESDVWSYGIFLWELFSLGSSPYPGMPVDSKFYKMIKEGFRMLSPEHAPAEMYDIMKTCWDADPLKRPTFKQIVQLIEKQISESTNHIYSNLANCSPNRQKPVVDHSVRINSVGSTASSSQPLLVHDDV
In outline:
as §1

The target of the next assay is T9, LCK (Homo sapiens, UniProt P06239).
T9 construct: purchased Nanosyn (contract screening)
T9 sequence (P06239 whole entry): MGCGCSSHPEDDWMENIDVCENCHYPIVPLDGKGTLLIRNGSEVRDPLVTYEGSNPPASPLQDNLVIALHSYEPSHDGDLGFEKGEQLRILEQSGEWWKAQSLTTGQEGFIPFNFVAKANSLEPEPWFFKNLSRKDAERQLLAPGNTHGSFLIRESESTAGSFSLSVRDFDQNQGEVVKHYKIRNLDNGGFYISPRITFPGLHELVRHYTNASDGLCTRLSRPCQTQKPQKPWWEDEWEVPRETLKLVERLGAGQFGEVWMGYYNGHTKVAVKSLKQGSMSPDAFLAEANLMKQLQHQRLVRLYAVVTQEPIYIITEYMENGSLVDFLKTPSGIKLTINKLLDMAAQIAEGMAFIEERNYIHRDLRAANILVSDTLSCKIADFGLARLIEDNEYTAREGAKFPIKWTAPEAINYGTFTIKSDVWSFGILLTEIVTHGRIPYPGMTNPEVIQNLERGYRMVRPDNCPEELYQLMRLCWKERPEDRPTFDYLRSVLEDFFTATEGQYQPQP
In outline:
as §1

The next assay concerns the target T10, LYNb (Homo sapiens, UniProt P07948).
T10 construct: purchased Nanosyn (contract screening)
An outline of the steps:
as §1

The target of a further assay is T11, MNK2 (Homo sapiens, UniProt Q9HBH9).
T11 construct: Nanosyn (contract laboratory that ran the panel)
T11 sequence (Q9HBH9 whole entry): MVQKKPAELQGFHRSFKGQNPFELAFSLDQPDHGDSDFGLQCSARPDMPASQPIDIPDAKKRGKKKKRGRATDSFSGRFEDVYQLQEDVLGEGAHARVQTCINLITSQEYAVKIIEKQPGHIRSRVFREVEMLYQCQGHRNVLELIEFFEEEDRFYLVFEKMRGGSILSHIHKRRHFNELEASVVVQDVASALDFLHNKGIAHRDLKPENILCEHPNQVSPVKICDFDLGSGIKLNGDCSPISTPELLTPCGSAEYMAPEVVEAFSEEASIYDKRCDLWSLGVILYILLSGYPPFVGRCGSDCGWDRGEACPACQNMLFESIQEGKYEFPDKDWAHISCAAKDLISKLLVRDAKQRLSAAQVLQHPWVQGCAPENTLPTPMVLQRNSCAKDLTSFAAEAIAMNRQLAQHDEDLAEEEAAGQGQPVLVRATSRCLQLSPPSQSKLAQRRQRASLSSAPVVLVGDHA
In outline: as §1

The target in another assay is T12, PDGFRb (Homo sapiens, UniProt P09619).
T12 construct: Nanosyn (contract laboratory that ran the panel)
An outline of the steps:
as §1

A further assay addresses T13, PKCb1 (Homo sapiens, UniProt P05771).
T13 construct: Nanosyn (contract laboratory that ran the panel)
An outline of the steps:
as §1

Another assay concerns the target T14, RET (Homo sapiens, UniProt P07949).
T14 construct: Nanosyn (contract laboratory that ran the panel)
In outline:
as §1

The target in a further assay is T15, SGK2 (Homo sapiens, UniProt Q9HBY8).
T15 construct: Nanosyn (contract laboratory that ran the panel)
T15 sequence (Q9HBY8 1-367): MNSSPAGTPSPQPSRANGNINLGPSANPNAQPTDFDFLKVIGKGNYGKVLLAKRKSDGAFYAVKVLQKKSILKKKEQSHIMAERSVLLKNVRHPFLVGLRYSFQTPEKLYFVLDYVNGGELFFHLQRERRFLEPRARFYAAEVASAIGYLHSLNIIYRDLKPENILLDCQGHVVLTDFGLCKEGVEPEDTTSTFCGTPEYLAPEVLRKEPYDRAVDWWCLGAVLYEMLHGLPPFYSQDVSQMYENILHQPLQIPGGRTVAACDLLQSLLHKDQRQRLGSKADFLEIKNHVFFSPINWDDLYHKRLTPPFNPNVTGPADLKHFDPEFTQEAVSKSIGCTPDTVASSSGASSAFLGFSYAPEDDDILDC
In outline:
as §1

For a further assay, the target named is T16, SRC (Homo sapiens, UniProt P12931).
T16 construct: Nanosyn (contract laboratory that ran the panel)
In outline: as §1

For a further assay, the target named is T17, TNIK (Homo sapiens, UniProt Q9UKE5).
T17 construct: Nanosyn (contract laboratory that ran the panel)
An outline of the steps: as §1

In another assay the target is T18, YES (Homo sapiens, UniProt P07947).
T18 construct: Nanosyn (contract laboratory that ran the panel)
An outline of the steps: as §1

For a further assay, the target named is T19, ZAK (Homo sapiens, UniProt Q9NYL2).
T19 construct: Nanosyn (contract laboratory that ran the panel)
An outline of the steps: as §1

Another assay deals with T20, p38a (Homo sapiens, UniProt Q16539).
T20 construct: Nanosyn (contract laboratory that ran the panel)
In outline:
as §1

Another assay addresses T21, p38b (Homo sapiens, UniProt Q15759).
T21 construct: Nanosyn (contract laboratory that ran the panel)
An outline of the steps:
as §1

T21 sequence (Q15759 whole entry): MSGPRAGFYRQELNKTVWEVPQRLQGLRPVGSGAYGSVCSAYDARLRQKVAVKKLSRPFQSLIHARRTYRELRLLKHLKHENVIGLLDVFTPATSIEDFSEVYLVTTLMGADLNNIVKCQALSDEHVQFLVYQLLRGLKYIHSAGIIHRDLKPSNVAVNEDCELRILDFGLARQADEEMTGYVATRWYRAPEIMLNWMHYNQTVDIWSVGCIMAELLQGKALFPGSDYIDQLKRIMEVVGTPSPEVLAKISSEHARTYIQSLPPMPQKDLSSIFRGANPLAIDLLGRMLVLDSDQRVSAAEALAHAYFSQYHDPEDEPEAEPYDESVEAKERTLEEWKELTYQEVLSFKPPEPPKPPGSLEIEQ
T4 sequence (P07333 20-972): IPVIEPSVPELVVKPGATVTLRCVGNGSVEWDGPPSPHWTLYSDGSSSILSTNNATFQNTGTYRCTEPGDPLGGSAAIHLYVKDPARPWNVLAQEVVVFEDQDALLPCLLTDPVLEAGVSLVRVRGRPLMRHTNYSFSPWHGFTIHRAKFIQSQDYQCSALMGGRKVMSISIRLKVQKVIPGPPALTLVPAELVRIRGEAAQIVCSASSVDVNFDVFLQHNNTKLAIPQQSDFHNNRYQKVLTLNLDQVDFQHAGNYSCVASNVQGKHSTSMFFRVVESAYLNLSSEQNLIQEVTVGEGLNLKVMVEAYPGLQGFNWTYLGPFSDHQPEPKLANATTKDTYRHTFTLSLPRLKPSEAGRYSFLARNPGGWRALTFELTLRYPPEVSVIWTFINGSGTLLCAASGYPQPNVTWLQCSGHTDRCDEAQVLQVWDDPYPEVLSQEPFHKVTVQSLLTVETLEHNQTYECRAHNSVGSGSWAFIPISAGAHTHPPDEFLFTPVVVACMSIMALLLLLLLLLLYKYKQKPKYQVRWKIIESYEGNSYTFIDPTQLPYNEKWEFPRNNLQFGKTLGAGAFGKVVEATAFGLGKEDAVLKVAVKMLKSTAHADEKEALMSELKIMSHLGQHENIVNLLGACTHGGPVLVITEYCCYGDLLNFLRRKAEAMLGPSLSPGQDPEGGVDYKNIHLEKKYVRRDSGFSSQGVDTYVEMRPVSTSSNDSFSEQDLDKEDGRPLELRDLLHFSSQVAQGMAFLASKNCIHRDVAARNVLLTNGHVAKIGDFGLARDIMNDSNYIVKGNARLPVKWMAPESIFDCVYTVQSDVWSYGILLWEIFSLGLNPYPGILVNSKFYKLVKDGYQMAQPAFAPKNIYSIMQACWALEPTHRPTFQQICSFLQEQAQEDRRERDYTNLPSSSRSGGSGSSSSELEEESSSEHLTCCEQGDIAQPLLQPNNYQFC

`CNC(=O)c1cc(Oc2ccc(NC(=O)c3cc(S(C)(=O)=O)n(-c4ccc(F)cc4)n3)c(F)c2)ccn1` [Ex17, 4-(3-fluoro-4-(1-(4-fluorophenyl)-5-(methylsulfonyl)-1H-pyrazole-3-carboxamido)phenoxy)-N-methylpicolinamide]: the inhibition (commonly the drop in the measured response relative to a control, in per cent) at 5 µM against ARAF was < 79%; on BRAF, < 79%; on BRK, ≥ 95%; on CSF1R it was < 79%; at DDR1, 80 to 89%; on FGR, < 79%. For the same molecule, the inhibition at 5 µM against KDR, on KIT, against LCK, at LYNb, at MNK2 and against PDGFRb was < 79% each time. For the same molecule, the inhibition at 5 µM against PKCb1, at RET, against SGK2, against SRC, against TNIK and on YES was < 79% each time. Besides, the inhibition at 5 µM against ZAK, on p38a and on p38b was < 79% each time.

With `CCOC(=O)Nc1cn2nc(Nc3cc(NC(=O)c4cc([S+](C)[O-])n(-c5ccc(F)cc5)n4)ccc3C)ccc2n1` (stereo not drawn) [Ex18, ethyl (6-((5-(1-(4-fluorophenyl)-5-(methylsulfinyl)-1H-pyrazole-3-carboxamido)-2-methylphenyl)amino)imidazo[1,2-b]pyridazin-2-yl)carbamate], the inhibition at 5 µM at ARAF was < 79%; at BRAF, 90 to 94%; on BRK, < 79%; against CSF1R, 80 to 89%; against DDR1 it was ≥ 95%; against FGR it was 80 to 89%. The inhibition at 5 µM against KDR is < 79%; at KIT it was 80 to 89%; against LCK, ≥ 95%; at LYNb, < 79%; on MNK2, < 79%; on PDGFRb, 90 to 94%. Further, the inhibition at 5 µM against PKCb1 is < 79%; on RET it was 80 to 89%; against SGK2, < 79%; against SRC, 80 to 89%; on TNIK, < 79%; at YES it was 90 to 94%. In addition, the figures for the inhibition at 5 µM against ZAK, against p38a and on p38b were < 79%, ≥ 95% and 80 to 89%, respectively.

Values taken from US20240400577A1, “MODULATORS OF PROTEIN KINASES” (VIBLIOME THERAPEUTICS, LLC, priority 2021, published 2024).
